Reference: PubChem BioAssay (NCI)
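Cultured in 96-well plates, cells were exposed to test compound for 48 hours across five concentrations. GI50 is the concentration that inhibits growth by half. Definition used: TGI = concentration required for complete inhibition of growth.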

Experiments:
Assay in all cases: growth of human tumour cells (NCI), 48 h
CCRF-CEM leukemia = tested on: CCRF-CEM leukemia
HOP-92 NSCLC = tested on: HOP-92 NSCLC
NCI-H460 lung = tested on: NCI-H460 lung
NCI/ADR-RES ovarian = tested on: NCI/ADR-RES ovarian
DU-145 prostate = tested on: DU-145 prostate
SK-MEL-28 melanoma = tested on: SK-MEL-28 melanoma
MOLT-4 leukemia = tested on: MOLT-4 leukemia
SK-OV-3 ovarian = tested on: SK-OV-3 ovarian
HCT-15 colon = tested on: HCT-15 colon
HOP-62 NSCLC = tested on: HOP-62 NSCLC
MALME-3M melanoma = tested on: MALME-3M melanoma
PC-3 prostate = tested on: PC-3 prostate
M14 melanoma = tested on: M14 melanoma
MDA-MB-231 breast = tested on: MDA-MB-231 breast
UO-31 renal = tested on: UO-31 renal
SR leukemia = tested on: SR leukemia
UACC-257 melanoma = tested on: UACC-257 melanoma
SF-268 CNS = tested on: SF-268 CNS
SK-MEL-2 melanoma = tested on: SK-MEL-2 melanoma
IGROV1 ovarian = tested on: IGROV1 ovarian
UACC-62 melanoma = tested on: UACC-62 melanoma
A549 NSCLC = tested on: A549 NSCLC
MCF7 breast = tested on: MCF7 breast
OVCAR-4 ovarian = tested on: OVCAR-4 ovarian
OVCAR-8 ovarian = tested on: OVCAR-8 ovarian
T-47D breast = tested on: T-47D breast
OVCAR-5 ovarian = tested on: OVCAR-5 ovarian
RXF 393 renal = tested on: RXF 393 renal
786-0 renal = tested on: 786-0 renal
HT29 colon = tested on: HT29 colon
LOX IMVI melanoma = tested on: LOX IMVI melanoma
HS 578T breast = tested on: HS 578T breast
COLO 205 colon = tested on: COLO 205 colon
HCC-2998 colon = tested on: HCC-2998 colon
NCI-H226 lung = tested on: NCI-H226 lung
SN12C renal = tested on: SN12C renal
SF-295 CNS = tested on: SF-295 CNS
KM12 colon = tested on: KM12 colon
HCT-116 colon = tested on: HCT-116 colon
MDA-MB-468 breast = tested on: MDA-MB-468 breast
A498 renal = tested on: A498 renal
SF-539 CNS = tested on: SF-539 CNS
SNB-19 CNS = tested on: SNB-19 CNS
SW-620 colon = tested on: SW-620 colon
HL-60(TB) leukemia = tested on: HL-60(TB) leukemia
MDA-MB-435 = tested on: MDA-MB-435
EKVX NSCLC = tested on: EKVX NSCLC
BT-549 breast = tested on: BT-549 breast
SNB-75 CNS = tested on: SNB-75 CNS
NCI-H23 lung = tested on: NCI-H23 lung
TK-10 renal = tested on: TK-10 renal
U251 CNS = tested on: U251 CNS
OVCAR-3 ovarian = tested on: OVCAR-3 ovarian
RPMI-8226 leukemia = tested on: RPMI-8226 leukemia
SK-MEL-5 melanoma = tested on: SK-MEL-5 melanoma
ACHN renal = tested on: ACHN renal
NCI-H522 lung = tested on: NCI-H522 lung
K-562 leukemia = tested on: K-562 leukemia
CAKI-1 renal = tested on: CAKI-1 renal

## CC[C@]12C=CCN3CC[C@]4(C(=C(C(=O)OC)C1)Nc1cc(OC)c([C@@H]5[C@H]6O[C@H]6[C@@]6(CC)CC(C(=O)OC)=C7Nc8cc(O)ccc8[C@@]78CCN5[C@@H]68)cc14)[C@@H]32
CCRF-CEM leukemia
  GI50: 2.19 µM
  TGI: > 56.5 µM
HOP-92 NSCLC
  GI50: 5.99 µM
  TGI: 14.3 µM
NCI-H460 lung
  GI50: 2.87 µM
  TGI: 10.9 µM
NCI/ADR-RES ovarian
  GI50: 7.86 µM
  TGI: 26.8 µM
DU-145 prostate
  GI50: 12.3 µM
  TGI: 50 µM
SK-MEL-28 melanoma
  GI50: 7.57 µM
  TGI: 24.5 µM
MOLT-4 leukemia
  GI50: 1.34 µM
  TGI: 6.82 µM
SK-OV-3 ovarian
  GI50: 17.7 µM
  TGI: > 56.5 µM
HCT-15 colon
  GI50: 2.91 µM
  TGI: 11.4 µM
HOP-62 NSCLC
  GI50: 12.9 µM
  TGI: 27.5 µM
MALME-3M melanoma
  GI50: 5.97 µM
  TGI: 12.8 µM
PC-3 prostate
  GI50: 1.99 µM
  TGI: 16.7 µM
M14 melanoma
  GI50: 2.91 µM
  TGI: 16.3 µM
MDA-MB-231 breast
  GI50: 6.8 µM
  TGI: 13.9 µM
UO-31 renal
  GI50: 4.31 µM
  TGI: 13.8 µM
SR leukemia
  GI50: 2.18 µM
  TGI: 21.7 µM
UACC-257 melanoma
  GI50: 4.3 µM
  TGI: 15.5 µM
SF-268 CNS
  GI50: 5.6 µM
  TGI: 43.5 µM
SK-MEL-2 melanoma
  GI50: 8.75 µM
  TGI: 19.8 µM
IGROV1 ovarian
  GI50: 8.95 µM
  TGI: 25 µM
UACC-62 melanoma
  GI50: 3.27 µM
  TGI: 11.6 µM
A549 NSCLC
  GI50: 4.56 µM
  TGI: > 56.5 µM
MCF7 breast
  GI50: 1.73 µM
  TGI: 11.6 µM
OVCAR-4 ovarian
  GI50: 5.68 µM
  TGI: > 56.5 µM
OVCAR-8 ovarian
  GI50: 12.4 µM
  TGI: > 56.5 µM
T-47D breast
  GI50: 1.9 µM
  TGI: 23.8 µM
OVCAR-5 ovarian
  GI50: 10.5 µM
  TGI: 27.5 µM
RXF 393 renal
  GI50: 2.6 µM
  TGI: 12.5 µM
786-0 renal
  GI50: 5.71 µM
  TGI: 49.4 µM
HT29 colon
  GI50: 6.12 µM
  TGI: 18.9 µM
LOX IMVI melanoma
  GI50: 3.11 µM
  TGI: 10.5 µM
HS 578T breast
  GI50: 11.7 µM
  TGI: > 56.5 µM
COLO 205 colon
  GI50: 10.4 µM
  TGI: 24 µM
HCC-2998 colon
  GI50: 3.32 µM
  TGI: 10.9 µM
NCI-H226 lung
  GI50: 5.95 µM
  TGI: 15 µM
SN12C renal
  GI50: 6.01 µM
  TGI: 15.3 µM
SF-295 CNS
  GI50: 5 µM
  TGI: 15.3 µM
KM12 colon
  GI50: 3.27 µM
  TGI: 14.9 µM
HCT-116 colon
  GI50: 2.17 µM
  TGI: 12.6 µM
MDA-MB-468 breast
  GI50: 1.11 µM
  TGI: 7.28 µM
A498 renal
  GI50: 13.1 µM
  TGI: 40 µM
SF-539 CNS
  GI50: 10.8 µM
  TGI: 27.4 µM
SNB-19 CNS
  GI50: 14.6 µM
  TGI: > 56.5 µM
SW-620 colon
  GI50: 5.67 µM
  TGI: 14.6 µM
HL-60(TB) leukemia
  GI50: 1.78 µM
  TGI: 8.34 µM
MDA-MB-435
  GI50: 3.71 µM
  TGI: 14.2 µM
EKVX NSCLC
  GI50: 3.7 µM
  TGI: 31.7 µM
BT-549 breast
  GI50: 6.27 µM
  TGI: 18.9 µM
SNB-75 CNS
  GI50: 2.95 µM
  TGI: > 56.5 µM
NCI-H23 lung
  GI50: 6.13 µM
  TGI: 18.8 µM
TK-10 renal
  GI50: 21.2 µM
  TGI: > 56.5 µM
U251 CNS
  GI50: 4.33 µM
  TGI: 14.6 µM
OVCAR-3 ovarian
  GI50: 3.92 µM
  TGI: 12.1 µM
RPMI-8226 leukemia
  GI50: 1.53 µM
  TGI: > 56.5 µM
SK-MEL-5 melanoma
  GI50: 3.66 µM
  TGI: 11.4 µM
ACHN renal
  GI50: 6.67 µM
  TGI: 20.3 µM
NCI-H522 lung
  GI50: 2.41 µM
  TGI: 11.6 µM
K-562 leukemia
  GI50: 1.91 µM
  TGI: 12.4 µM
CAKI-1 renal
  GI50: 4 µM
  TGI: 50.1 µM
